Results taken from patent US8049006B2, “7-membered ring compound and method of production and pharmaceutical application thereof” (Daiichi Sankyo Company, Limited, priority 2006, dated 2011).

Legend:
C3H/HeN mice = details: 10 mg/kg orally once a day; 24 hours after DNFB application at fifth week; female C3H/HeN mice

Row | SMILES | melting point | inhibition rate of the skin reaction (C3H/HeN mice) [%]
1 | CC[C@@H](NC(=O)N1CC(=O)NC[C@@H](Cc2cc(Cl)ccc2OC)C1=O)c1cccc(C(=O)[O-])c1.[Na+] | 161 to 163 °C | 
2 | CC[C@@H](NC(=O)N1CC(=O)NCC(Cc2cc(Cl)ccc2OC)C1=O)C(=O)Nc1ccc(C)c(C(=O)O)c1 (stereo partly drawn) | 132 to 134 °C | 
3 | COc1ccc(Cl)cc1CC1CNC(=O)CN(S(=O)(=O)c2ccc(Cl)cc2)C1=O (stereo not drawn) [Compound 29, 6-(5-chloro-2-methoxybenzyl)-4-[(4-chlorophenyl)sulfonyl]-1,4-diazepan-2,5-dione] | 110 to 112 °C | 25.1
4 | COc1ccc(Cl)cc1CC1CNC(=O)CN(S(=O)(=O)c2ccc(Cl)c(N)c2)C1=O.Cl (stereo not drawn) [Compound 90, 4-[(3-amino-4-chlorophenyl)sulfonyl]-6-(5-chloro-2-methoxybenzyl)-1,4-diazepan-2,5-dione Hydrochloride] |  | 31.0
5 | CC[C@@H](NC(=O)N1CC(=O)NC[C@@H](Cc2cc(Cl)ccc2OC)C1=O)c1cccc(C(=O)O)c1 [Compound 91, 3-[(1R)-1-({[(6R)-6-(5-chloro-2-methoxybenzyl)-3,7-dioxo-1,4-diazepan-1-yl]carbonyl}amino)propyl]benzoic Acid] | 121 to 123 °C | 26.1

Second part, led by results:

Row | melting point | SMILES | inhibition rate of the skin reaction (C3H/HeN mice) [%]
6 | 150 to 153 °C | COc1ccc(F)cc1/C=C1\CNC(=O)CN(S(=O)(=O)c2ccc(Cl)s2)C1=O | 
7 | 73 to 76 °C | COC(=O)C[C@@H]1C(=O)NC[C@H](Cc2cc(F)ccc2OC)C(=O)N1S(=O)(=O)c1ccc(Cl)cc1 | 
8 | 141 to 142 °C | CC[C@@H](NC(=O)N1CC(=O)NCC(Cc2cc(Cl)ccc2OC)C1=O)C(=O)Nc1nnn[nH]1 (stereo partly drawn) | 
9 | 138 to 140 °C | COC(=O)COc1ccc(Cl)cc1CC1CNC(=O)CN(S(=O)(=O)c2ccc(Cl)cc2)C1=O (stereo not drawn) | 
10 | 187 to 190 °C | O=C(CN1CC(Cc2ccccc2)C(=O)N(S(=O)(=O)c2ccc(Cl)cc2)CC1=O)NCc1ccccc1 (stereo not drawn) | 
11 | 130 to 131 °C | COc1ccc(Cl)cc1CC1CNC(=O)CN(C(=O)Nc2cccc(NC(C)=O)c2)C1=O (stereo not drawn) | 
12 | 64 to 66 °C | Cc1cccc(CC2CNC(=O)CN(S(=O)(=O)c3ccc(Cl)cc3)C2=O)c1 (stereo not drawn) | 
13 | 239 °C (dec.) | N#Cc1ccc(S(=O)(=O)N2CC(=O)NC/C(=C\c3ccccc3)C2=O)cc1 | 
